Three compounds from publication PMC12928749 (ACS catalysis, 2025) can be followed below.

The term Kd denotes the concentration at which binding is half-saturated. The low end stands for tighter binding, the high end for weaker binding.

The target of experiment [1] is T1, TyrH (heme-dependent tyrosine hydroxylase) (Streptomyces sclerotialus, UniProt Z9QGI7APK5).
T1 sequence (Z9QGI7APK5 1-314): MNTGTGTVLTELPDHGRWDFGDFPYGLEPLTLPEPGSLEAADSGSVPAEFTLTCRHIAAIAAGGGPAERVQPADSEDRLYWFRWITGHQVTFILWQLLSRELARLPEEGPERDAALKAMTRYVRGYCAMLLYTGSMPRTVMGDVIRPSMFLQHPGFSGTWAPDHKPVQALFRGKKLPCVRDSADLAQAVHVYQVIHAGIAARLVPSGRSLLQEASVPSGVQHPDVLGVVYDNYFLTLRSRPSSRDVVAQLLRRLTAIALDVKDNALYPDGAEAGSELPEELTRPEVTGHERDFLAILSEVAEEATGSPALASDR
As to the kind of experiment: steady-state kinetics. It is filed as biochemical. Particulars: co-substrate H2O2.

Experiment [2] has as its target T1, TyrH (heme-dependent tyrosine hydroxylase). The experiment is described as follows: UV-vis titration. The experiment is classed as binding. Particulars: 100 mM potassium phosphate, 50 mM NaCl, pH 7.4; ferric enzyme.

Structures are written as SMILES.

Consider `O=C(O)CCc1ccc(O)cc1` [HPPA, 3-(4-hydroxyphenyl)propionic acid], for which, in experiment [1], the KM result is “The KM values for both tyrosine and HPPA were comparable (Figure S8)”.

On to `N[C@@H](Cc1ccc(O)cc1)C(=O)O` [L-Tyr, L-tyrosine], for which, in experiment [1], the KM entry was “The KM values for both tyrosine and HPPA were comparable (Figure S8)”.

`O=Nc1ccccc1` [NB, nitrosobenzene] registered a Kd in experiment [2] of 296 ± 8 µM.
